Data as given in patent US6472348B1, “Pyridone derivatives and herbicides” (Kumiai Chemical Industry Co., Ltd., priority 1996, dated 2002).

Each compound was assayed on barnyardgrass (Ec) (assay: Test Example 1: herbicidal effects by paddy field soil treatment). Details: 100 g of the active ingredient per 10 ares, 21st day after the application, index 0-5 of Table 47.
Type: in vivo
Description: (§1) (Test on Herbicidal Effects by Paddy Field Soil Treatment)
(§2) In a plastic pot (surface area: 100 cm^2) filled with paddy field soil, barnyardgrass (Ec), monochoria (Mo) and bulrush (Sc) were sown after puddling and leveling, and flooded to a water depth of 3 cm. […] The dose was 100 g of the active ingredient per 10 ares. The plants were then cultured in a green house, and the evaluation of the herbicidal effects was conducted on the 21st day after the application in accordance with the standards as identified in Table 47.
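Wherever Herbicidal effects Mo is given: grade of growth control; 5 = at least 90%; 4 = 70 to 90%; 3 = 50 to 70%; 2 = 30 to 50%; 1 = 10 to 30%; 0 = under 10%.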

SMILES | Herbicidal effects Ec
C=CCOc1cc(Cl)cc(F)c1-c1ccc(C(F)(F)F)n(C)c1=O [1′-3] | 5
CC(C)Sc1cc(-c2ccc(C(F)(F)F)n(C)c2=O)c(Cl)cc1Cl [1-51] | 5

What follows are compounds tested on bulrush (Sc) in the same assay as above. Details: 100 g of the active ingredient per 10 ares, 21st day after the application, index 0-5 of Table 47.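 Further: grade of growth control; 5 = at least 90%; 4 = 70 to 90%; 3 = 50 to 70%; 2 = 30 to 50%; 1 = 10 to 30%; 0 = under 10%.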
Type: in vivo
Description: as §1, §2

SMILES | Herbicidal effects Sc
C=CCOc1cc(Cl)cc(F)c1-c1ccc(C(F)(F)F)n(C)c1=O [1′-3] | 4
CC(C)Sc1cc(-c2ccc(C(F)(F)F)n(C)c2=O)c(Cl)cc1Cl [1-51] | 5

Each compound was assayed on monochoria (Mo) in the same assay as above. Details: 100 g of the active ingredient per 10 ares, 21st day after the application, index 0-5 of Table 47.
Type: in vivo
Description: as §1, §2

SMILES | Herbicidal effects Mo
C=CCOc1cc(Cl)cc(F)c1-c1ccc(C(F)(F)F)n(C)c1=O [1′-3] | 5
CC(C)Sc1cc(-c2ccc(C(F)(F)F)n(C)c2=O)c(Cl)cc1Cl [1-51] | 5

What follows are compounds tested on Digitaria ciliaris (Di) (assay: Test Example 2: herbicidal effects by upland field soil treatment). Details: 100 g of the active ingredient per 10 ares, 21st day after the application, index 0-5 of Table 47.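 Further: grade of growth control; 5 = at least 90%; 4 = 70 to 90%; 3 = 50 to 70%; 2 = 30 to 50%; 1 = 10 to 30%; 0 = under 10%.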
Type: in vivo
Excerpt: (§3) (Test on Herbicidal Effects by Upland Field Soil Treatment)

SMILES | Herbicidal effects Di
CC(C)Sc1cc(-c2ccc(C(F)(F)F)n(C)c2=O)c(Cl)cc1Cl [1-51] | 5

Same assay, conditions: 100 g of the active ingredient per 10 ares, evaluated on the 21st day after application

SMILES | Herbicidal effects Di
C=CCOc1cc(Cl)cc(F)c1-c1ccc(C(F)(F)F)n(C)c1=O [1′-3] | 5

These compounds were tested on barnyardgrass (Ec) in the same assay as above. Details: 100 g of the active ingredient per 10 ares, 21st day after the application, index 0-5 of Table 47.
Type: in vivo
Excerpt: as §3

SMILES | Herbicidal effects Ec
CC(C)Sc1cc(-c2ccc(C(F)(F)F)n(C)c2=O)c(Cl)cc1Cl [1-51] | 4

Same assay, conditions: 100 g of the active ingredient per 10 ares, evaluated on the 21st day after application

SMILES | Herbicidal effects Ec
C=CCOc1cc(Cl)cc(F)c1-c1ccc(C(F)(F)F)n(C)c1=O [1′-3] | 5

The compounds below were run on common lambsquarters (Ch) in the same assay as above. Details: 100 g of the active ingredient per 10 ares, 21st day after the application, index 0-5 of Table 47.
Type: in vivo
Excerpt: as §3

SMILES | Herbicidal effects Ch
CC(C)Sc1cc(-c2ccc(C(F)(F)F)n(C)c2=O)c(Cl)cc1Cl [1-51] | 5

Same assay, conditions: 100 g of the active ingredient per 10 ares, evaluated on the 21st day after application

SMILES | Herbicidal effects Ch
C=CCOc1cc(Cl)cc(F)c1-c1ccc(C(F)(F)F)n(C)c1=O [1′-3] | 5

What follows are compounds tested on pale smartweed (Po) in the same assay as above. Details: 100 g of the active ingredient per 10 ares, 21st day after the application, index 0-5 of Table 47.
Type: in vivo
Excerpt: as §3

SMILES | Herbicidal effects Po
CC(C)Sc1cc(-c2ccc(C(F)(F)F)n(C)c2=O)c(Cl)cc1Cl [1-51] | 5

Same assay, conditions: 100 g of the active ingredient per 10 ares, evaluated on the 21st day after application

SMILES | Herbicidal effects Po
C=CCOc1cc(Cl)cc(F)c1-c1ccc(C(F)(F)F)n(C)c1=O [1′-3] | 5

These compounds were tested on rice flatsedge (Ci) in the same assay as above. Details: 100 g of the active ingredient per 10 ares, 21st day after the application, index 0-5 of Table 47.
Type: in vivo
Excerpt: as §3

SMILES | Herbicidal effects Ci
CC(C)Sc1cc(-c2ccc(C(F)(F)F)n(C)c2=O)c(Cl)cc1Cl [1-51] | 5

Same assay, conditions: 100 g of the active ingredient per 10 ares, evaluated on the 21st day after application

SMILES | Herbicidal effects Ci
C=CCOc1cc(Cl)cc(F)c1-c1ccc(C(F)(F)F)n(C)c1=O [1′-3] | 5

The compounds below were run on slender amaranth (Am) in the same assay as above. Details: 100 g of the active ingredient per 10 ares, 21st day after the application, index 0-5 of Table 47.
Type: in vivo
Excerpt: as §3

SMILES | Herbicidal effects Am
CC(C)Sc1cc(-c2ccc(C(F)(F)F)n(C)c2=O)c(Cl)cc1Cl [1-51] | 5

Same assay, conditions: 100 g of the active ingredient per 10 ares, evaluated on the 21st day after application

SMILES | Herbicidal effects Am
C=CCOc1cc(Cl)cc(F)c1-c1ccc(C(F)(F)F)n(C)c1=O [1′-3] | 5

What follows are compounds tested on Diaitaria ciliaris (Di) (assay: Test Example 3: herbicidal effects by upland field foliage treatment). Details: 100 g active ingredient per 10 ares, evaluated 14th day after treatment.
Type: in vivo
Set-up: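 grade of growth control; 5 = at least 90%; 4 = 70 to 90%; 3 = 50 to 70%; 2 = 30 to 50%; 1 = 10 to 30%; 0 = under 10%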
Description: (§4) (Test on Herbicidal Effects by Upland Field Foliage Treatment)
(§5) In a plastic pot (surface area: 120 cm^2) filled with sand, barnyardgrass (Ec), Diaitaria ciliaris (Di), pale smartweed (Po), slender amaranth (Am), common lambsquarters (Ch) and rice flatsedge (Ci) were sown and covered with soil and were cultured in a green house for 2 weeks. […] The plants were then cultured in the green house, and the evaluation of the herbicidal effects was conducted on the 14th day after the treatment in accordance with the standards as identified in Table 47. Symbol—represents “not tested”.

SMILES | Herbicidal effects Di
C=CCOc1cc(Cl)cc(F)c1-c1ccc(C(F)(F)F)n(C)c1=O [1′-3] | 5

Same assay, conditions: 100 g of the active ingredient per 10 ares, evaluated on the 14th day after treatment

SMILES | Herbicidal effects Di
CC(C)Sc1cc(-c2ccc(C(F)(F)F)n(C)c2=O)c(Cl)cc1Cl [1-51] | 5

The compounds below were run on barnyardgrass (Ec) in the same assay as above. Details: 100 g active ingredient per 10 ares, evaluated 14th day after treatment.
Type: in vivo
Set-up: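 grade of growth control; 5 = at least 90%; 4 = 70 to 90%; 3 = 50 to 70%; 2 = 30 to 50%; 1 = 10 to 30%; 0 = under 10%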
Description: as §4, §5

SMILES | Herbicidal effects Ec
C=CCOc1cc(Cl)cc(F)c1-c1ccc(C(F)(F)F)n(C)c1=O [1′-3] | 5

Same assay, conditions: 100 g of the active ingredient per 10 ares, evaluated on the 14th day after treatment

SMILES | Herbicidal effects Ec
CC(C)Sc1cc(-c2ccc(C(F)(F)F)n(C)c2=O)c(Cl)cc1Cl [1-51] | 4

The compounds below were run on common lambsquarters (Ch) in the same assay as above. Details: 100 g active ingredient per 10 ares, evaluated 14th day after treatment.
Type: in vivo
Set-up: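 grade of growth control; 5 = at least 90%; 4 = 70 to 90%; 3 = 50 to 70%; 2 = 30 to 50%; 1 = 10 to 30%; 0 = under 10%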
Description: as §4, §5

SMILES | Herbicidal effects Ch
C=CCOc1cc(Cl)cc(F)c1-c1ccc(C(F)(F)F)n(C)c1=O [1′-3] | 5

Same assay, conditions: 100 g of the active ingredient per 10 ares, evaluated on the 14th day after treatment

SMILES | Herbicidal effects Ch
CC(C)Sc1cc(-c2ccc(C(F)(F)F)n(C)c2=O)c(Cl)cc1Cl [1-51] | 5

Each compound was assayed on pale smartweed (Po) in the same assay as above. Details: 100 g active ingredient per 10 ares, evaluated 14th day after treatment.
Type: in vivo
Set-up: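 grade of growth control; 5 = at least 90%; 4 = 70 to 90%; 3 = 50 to 70%; 2 = 30 to 50%; 1 = 10 to 30%; 0 = under 10%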
Description: as §4, §5

SMILES | Herbicidal effects Po
C=CCOc1cc(Cl)cc(F)c1-c1ccc(C(F)(F)F)n(C)c1=O [1′-3] | 5

Same assay, conditions: 100 g of the active ingredient per 10 ares, evaluated on the 14th day after treatment

SMILES | Herbicidal effects Po
CC(C)Sc1cc(-c2ccc(C(F)(F)F)n(C)c2=O)c(Cl)cc1Cl [1-51] | 5

What follows are compounds tested on rice flatsedge (Ci) in the same assay as above. Details: 100 g active ingredient per 10 ares, evaluated 14th day after treatment.
Type: in vivo
Set-up: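 grade of growth control; 5 = at least 90%; 4 = 70 to 90%; 3 = 50 to 70%; 2 = 30 to 50%; 1 = 10 to 30%; 0 = under 10%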
Description: as §4, §5

SMILES | Herbicidal effects Ci
C=CCOc1cc(Cl)cc(F)c1-c1ccc(C(F)(F)F)n(C)c1=O [1′-3] | 5

Same assay, conditions: 100 g of the active ingredient per 10 ares, evaluated on the 14th day after treatment

SMILES | Herbicidal effects Ci
CC(C)Sc1cc(-c2ccc(C(F)(F)F)n(C)c2=O)c(Cl)cc1Cl [1-51] | 5

What follows are compounds tested on slender amaranth (Am) in the same assay as above. Details: 100 g active ingredient per 10 ares, evaluated 14th day after treatment.
Type: in vivo
Set-up: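 grade of growth control; 5 = at least 90%; 4 = 70 to 90%; 3 = 50 to 70%; 2 = 30 to 50%; 1 = 10 to 30%; 0 = under 10%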
Description: as §4, §5

SMILES | Herbicidal effects Am
C=CCOc1cc(Cl)cc(F)c1-c1ccc(C(F)(F)F)n(C)c1=O [1′-3] | 5

Same assay, conditions: 100 g of the active ingredient per 10 ares, evaluated on the 14th day after treatment

SMILES | Herbicidal effects Am
CC(C)Sc1cc(-c2ccc(C(F)(F)F)n(C)c2=O)c(Cl)cc1Cl [1-51] | 5
